Values joined by “and” are separate entries in the source; they are usually repeats but may differ in a detail not shown here. Identical values can stand only once. Like-named read-outs stand apart in the source and are kept apart here.
Assays:
[1] = system: cancer cell lines including breast cancer, leukemia, and neuroblastoma; set-up: method as in Zhang et al., 2014; settings: ref Zhang et al., 2014; cited from earlier work
CYP1A2 = biological target: T1, CYP1A2 (Homo sapiens, UniProt P05177); test: Inhibition of sepin-1 on CYP1A2; assay type: in vitro ADME
T1 construct: purchased XenoTech
T1 sequence (P05177 1-516): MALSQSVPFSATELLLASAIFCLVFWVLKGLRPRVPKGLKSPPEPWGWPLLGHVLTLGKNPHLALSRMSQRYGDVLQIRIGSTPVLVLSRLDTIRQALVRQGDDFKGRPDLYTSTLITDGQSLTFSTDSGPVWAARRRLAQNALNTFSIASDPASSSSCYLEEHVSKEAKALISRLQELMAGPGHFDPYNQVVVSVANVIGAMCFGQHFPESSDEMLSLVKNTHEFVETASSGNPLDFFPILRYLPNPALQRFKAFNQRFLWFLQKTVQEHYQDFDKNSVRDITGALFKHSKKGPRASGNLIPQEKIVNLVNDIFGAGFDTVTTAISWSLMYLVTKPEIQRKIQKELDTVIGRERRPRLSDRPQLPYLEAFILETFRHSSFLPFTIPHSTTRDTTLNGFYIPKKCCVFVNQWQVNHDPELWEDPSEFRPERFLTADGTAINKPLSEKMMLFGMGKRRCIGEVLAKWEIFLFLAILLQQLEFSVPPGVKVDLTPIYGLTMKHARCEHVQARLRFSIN
Method: (§1) Incubations were performed in 1× PBS (pH 7.4), containing 0, 0.156, 0.312, 0.625, 1.25, 2.5, 5, 10, 20, or 40 μM sepin-1, 2 pmol of each cDNA-expressed P450 enzymes, and corresponding substrates: CYP1A2 (phenacetin, 40 μM, 20 min incubation), 2B6 (efavirenz, 20 μM, 30 min), 2C8 (paclitaxel, 10 μM, 30 min), 2C9 (diclofenac, 5 μM, 15 min), 2C19 [(S)-mephenytoin, 40 μM, 20 min], 2D6 (dextromethorphan, 5 μM, 15 min), and CYP3A4 (midazolam, 3 μM, 10 min) in a final volume of 190 μl. After 5 min of pre-incubation at 37°C, the reaction was initiated by adding 10 μl of 20 mM NADPH (final concentration 1.0 mM) and continued for a specific time as presented above with gentle shaking. Incubations without sepin-1 were used as controls. Reactions were terminated by the addition of 200 μl of ice-cold methanol, vortexing for 30 s, and centrifuging at 15,000 × g for 15 min. Each supernatant was transferred to an auto sampler vial and 5.0 μl was injected on to UHPLC coupled with a QQQMS system for the specific metabolite analysis. A MRM method was used. Incubations were conducted in duplicate. Positive controls were performed by using a known specific inhibitor for each of the isoform assays (Supplementary Table S1). […]

separase = system: separase; set-up: method as in Zhang et al., 2014; settings: ref Zhang et al., 2014; cited from earlier work
CYP2B6 = biological target: T2, CYP2B6 (Homo sapiens, UniProt P20813); test: Inhibition of sepin-1 on CYP2B6; assay type: in vitro ADME
T2 construct: purchased XenoTech
T2 sequence (P20813 1-491): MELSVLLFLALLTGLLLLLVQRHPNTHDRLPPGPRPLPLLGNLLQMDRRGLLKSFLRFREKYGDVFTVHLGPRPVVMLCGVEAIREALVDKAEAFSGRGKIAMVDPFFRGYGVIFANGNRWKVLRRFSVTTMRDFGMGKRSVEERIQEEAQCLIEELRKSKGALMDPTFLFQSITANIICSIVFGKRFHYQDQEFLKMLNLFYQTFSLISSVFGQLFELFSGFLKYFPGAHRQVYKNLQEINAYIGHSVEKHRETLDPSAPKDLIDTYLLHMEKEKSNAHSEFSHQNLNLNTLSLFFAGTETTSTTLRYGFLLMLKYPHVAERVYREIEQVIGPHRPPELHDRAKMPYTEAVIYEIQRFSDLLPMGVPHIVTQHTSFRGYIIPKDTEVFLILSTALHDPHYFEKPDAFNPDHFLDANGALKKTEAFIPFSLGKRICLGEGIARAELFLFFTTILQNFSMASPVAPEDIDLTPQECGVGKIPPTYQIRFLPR
Method: as §1

CYP2D6 = biological target: T3, CYP2D6 (Homo sapiens, UniProt P10635); test: Inhibition of sepin-1 on CYP2D6; assay type: in vitro ADME
T3 construct: purchased XenoTech
Method: as §1

T3 sequence (P10635 whole entry): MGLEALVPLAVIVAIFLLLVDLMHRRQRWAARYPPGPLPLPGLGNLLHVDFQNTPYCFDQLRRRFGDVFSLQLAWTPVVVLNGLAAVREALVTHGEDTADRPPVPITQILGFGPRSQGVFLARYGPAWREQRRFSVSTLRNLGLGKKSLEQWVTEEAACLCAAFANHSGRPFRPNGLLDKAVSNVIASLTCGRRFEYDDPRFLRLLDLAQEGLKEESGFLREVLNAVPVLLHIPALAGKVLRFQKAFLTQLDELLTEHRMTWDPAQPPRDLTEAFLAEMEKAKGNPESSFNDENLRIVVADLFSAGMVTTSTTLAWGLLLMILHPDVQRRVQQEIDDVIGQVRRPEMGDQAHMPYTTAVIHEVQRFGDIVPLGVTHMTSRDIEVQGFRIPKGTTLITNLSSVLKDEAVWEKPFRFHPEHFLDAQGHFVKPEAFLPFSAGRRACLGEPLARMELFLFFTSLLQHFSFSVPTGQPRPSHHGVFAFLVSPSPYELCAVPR

CC1(C)[N+]([O-])=c2ccc([N+](=O)[O-])cc2=[N+]1[O-] [Sepin-1, 2,2-dimethyl-5-nitro-2H-benzimidazole-1,3-dioxide]
Inhibition of cancer cell line growth [1]: selectively inhibits the growth of cancer cell lines | IC50 (CYP1A2; FDA classification bands, read-out: Inhibition potency class on CYP1A2): 1 to 10 µM | IC50 (CYP1A2; substrate phenacetin 40 μM, 20 min, metabolite acetaminophen, co-incubation, read-out: IC50 on CYP1A2): < 10 µM and 8.1 µM | Inhibition of separase activity (mode) (separase): inhibits separase activity in a non-competitive way | Inhibition potency class on CYP2B6 (CYP2B6; FDA classification bands): weak inhibition | IC50 (CYP2B6; substrate efavirenz 20 μM, 30 min, metabolite 8-O-efavirenz, co-incubation): > 10 µM and 14.5 µM | Inhibition potency class on CYP2D6 (CYP2D6; FDA classification bands): weak inhibition | IC50 (CYP2D6; substrate dextromethorphan 5 μM, 15 min, O-demethylation, co-incubation): > 10 µM and 42.5 µM
